“Also recorded” adds a separate entry of the source.
Tests used:
human subjects [1] = test: Initial human study, two male subjects ingesting aegeline for 12-18 weeks, reported effects; type: in vivo; details: for libido: male volunteers
human subjects [2] = test: Human study, six adult males ingesting 200-800 mg aegeline per day: effects reported by subjects; type: in vivo
Text: In a separate study, the compound aegeline was orally administered to six human subjects. The volunteer subjects were all non-smoking males between the ages of 24-36.

SMILES: COc1ccc(C(O)CNC(=O)/C=C/c2ccccc2)cc1 (stereo not shown) [aegeline, N-[2-hydroxy-2(4-methoxyphenyl)ethyl]-3-phenyl-2-propenamide]
- effect on thermogenesis (human subjects [1]; daily dose of 80 mg): without a very noticeable effect; also recorded: not very noticeable
- mental stamina, focus, and mood (human subjects [1]; daily dose of 80 mg): effective to increase or improve
- duration of effects on mental stamina, focus, and mood after effect onset (human subjects [1]; daily dose of 120 mg): 8 to 10 h
- mental stamina, focus, and mood (human subjects [1]; daily dose of 120 mg): further increased or improved
- thermogenic effect (human subjects [1]; daily dose of 120 mg): noticeable but not very apparent; also recorded: noticeable
- mental stamina, focus, energy level, mood and thermogenesis (human subjects [1]; dose increase to 150-180 mg): further enhanced or increased
- libido (human subjects [1]; daily dose of 150 mg): increased libido; also recorded: effective to increase libido
- libido (human subjects [1]; daily doses lower than 150 mg): not at the lower daily doses
- reported effects (human subjects [1]; two male subjects, 20-60 mg per day): no immediate apparent effects
- mental stamina, focus and concentration, energy level, and mood (human subjects [1]; two male subjects, 80-150 mg per day): increased or improved
- anabolic effects (human subjects [2]; 200 mg per day): became apparent after extended use
- thermogenic effect (human subjects [2]; 200 mg per day): very apparent
- time of daily administration until anabolic effects became apparent (human subjects [2]; 200 mg per day): around 7 days
- libido (human subjects [2]; 400 mg per day): very apparent and prolonged increase
- effect on libido (human subjects [2]; daily dose of 200 mg): further increased
- effects on mental stamina, energy level, focus, and mood (human subjects [2]; daily dose of 200 mg): very apparent
- anabolic effects (human subjects [2]; daily dose of 400 mg): immediately apparent
- dose-dependency of effects on mental stamina, energy level, focus, and mood (human subjects [2]; doses above 400 mg per day): not readily observed
- physical performance for exercise and strength training activities (human subjects [2]; one subject, daily dose of 800 mg): improved physical performance
